Patent US11786597B2, “Ionic liquids for transdermal drug delivery” (priority 2013, dated 2023)

test system: not listed separately; assay: Determination of lipophilicity (octanol/water distribution by UV absorbance); assay type: physicochemical; conditions: after extraction with water, Table 3
Protocol: A 250 mL volume of n-octanol was shaken with 100 mL of ddH2O and left overnight. […]
The absorption of the octanol layer and water layers were measured and compared with the absorbance of the stock solutions. Measurements were repeated three times and the distribution coefficients were reported as the average. The percent of IL in octanol was calculated as the absorbance of the octanol layer after extraction divided by the absorbance of IL in octanol before extraction. The water/octanol distribution coefficient was calculated as the logarithm of the percent of IL in octanol divided by the percent of IL in water.

Structure (SMILES) | percent in octanol
CCCCCC(=O)[O-].CCCCCCCCCCCCCC[P+](CCCCCC)(CCCCCC)CCCCCC [LANL-20, [PC14H29(C6H13)3][hexanoate]] | 65 +/− 14%

same assay, conditions: octanol/water, Table 3

Structure (SMILES) | log Po/w
CCCCCC(=O)[O-].CCCCCCCCCCCCCC[P+](CCCCCC)(CCCCCC)CCCCCC [LANL-20, [PC14H29(C6H13)3][hexanoate]] | 0.26

test system: not listed separately; assay: Density (volumetric flask and balance); assay type: physicochemical; conditions: 25° C.
Protocol: (§1) Determinations of conductivity were made on an ION450 benchtop meter (Radiometer Analytical) with a 2-pole electrode designed for use in viscous liquids (Radiometer Analytical CDC241-9) and calibrated with KCl. Conductivity was measured three times per sample on stirred 3 mL volumes of neat IL at 25° C. Density was measured three times per IL using a 1 mL volumetric flask and an analytical balance.

Structure (SMILES) | density
CCCCCC(=O)[O-].CCCCCCCCCCCCCC[P+](CCCCCC)(CCCCCC)CCCCCC [LANL-20, [PC14H29(C6H13)3][hexanoate]] | 0.912 g/mL

same assay, conditions: Table 5

Structure (SMILES) | density
CCCCCC(=O)[O-].CCCCCCCCCCCCCC[P+](CCCCCC)(CCCCCC)CCCCCC [LANL-20, [PC14H29(C6H13)3][hexanoate]] | 0.912 g/mL

test system: not listed separately; assay: Conductivity of neat IL; assay type: physicochemical; conditions: 25° C.
Protocol: as §1

Structure (SMILES) | conductivity
CCCCCC(=O)[O-].CCCCCCCCCCCCCC[P+](CCCCCC)(CCCCCC)CCCCCC [LANL-20, [PC14H29(C6H13)3][hexanoate]] | 0.488 mS/cm

same assay, conditions: Table 5

Structure (SMILES) | conductivity
CCCCCC(=O)[O-].CCCCCCCCCCCCCC[P+](CCCCCC)(CCCCCC)CCCCCC [LANL-20, [PC14H29(C6H13)3][hexanoate]] | 0.488 mS/cm

test system: not listed separately; assay: Viscosity (Viscolab 3000 viscometer); assay type: physicochemical; conditions: 25° C.
Protocol: Viscosity was measured on 1 mL samples with a Viscolab 3000 viscometer (Cambridge Viscosity, Medford, MA). […] Low-temperature differential scanning calorimetry (DSC) was performed on a DSC882e instrument (Mettler-Toledo Inc., Columbus, Ohio) under N2 atmosphere over two complete scans of a temperature range of −60 to 120° C. with a ramp rate of 10° C. per minute and a sample size of 18-21 mg in an aluminum crucible.

Structure (SMILES) | viscosity
CCCCCC(=O)[O-].CCCCCCCCCCCCCC[P+](CCCCCC)(CCCCCC)CCCCCC [LANL-20, [PC14H29(C6H13)3][hexanoate]] | 154 cP

same assay, conditions: Table 5

Structure (SMILES) | viscosity
CCCCCC(=O)[O-].CCCCCCCCCCCCCC[P+](CCCCCC)(CCCCCC)CCCCCC [LANL-20, [PC14H29(C6H13)3][hexanoate]] | 154 cP

test system: not listed separately; assay: Solubility in water (physical characterization); conditions: 25° C.

Structure (SMILES) | solubility in water
CCCCCC(=O)[O-].CCCCCCCCCCCCCC[P+](CCCCCC)(CCCCCC)CCCCCC [LANL-20, [PC14H29(C6H13)3][hexanoate]] | trace

test system: Normal human bronchial epithelial (NHBE) cells; assay: WST-1 proliferation assay, 24 h exposure to diluted ILs; conditions: NHBE cells, text b165
Protocol: Normal human bronchial epithelial (NHBE) cells were purchased (Lonza, Walkersville, MD) and cultured using bronchial epithelial cell growth media (BEGM, Clonetics Bullet Kit, Lonza, Walkersville, MD) on 100 mm tissue culture treated Petri dishes (Santa Cruz Biotechnologies, Santa Cruz, CA) coated with 50 μg/mL type I rat tail collagen (BD Biosciences, Bedford, MA). Cells were stored in an incubator with a humidified atmosphere at 37° C. and 5% CO2. Cells were fed two times weekly and passaged via trypsinization. Experimentation was performed in triplicate on cells harvested from passages 3 to 7.
NHBE cells were plated in 96-well tissue culture plates at a concentration of 1.5×10^4 cells/well in a volume of 200 μL and allowed to acclimate overnight. On the day of experimentation, treatment plates were prepared using stock ionic liquid diluted in BEGM and then serially diluted 3-fold for a total of 7 concentrations. The 96-well plates containing cells were then aspirated and the treatments (150 μL/well) were carefully transferred from the prep plate to the cells. Cells were exposed to the ionic liquids for 24 hours. Two hours prior to the end of the exposure time, positive control cell wells were aspirated, and a solution of 1% Triton-100 (150 μL/well) was added.
To assess cellular proliferation, water-soluble tetrazolium (WST-1) reagent (Clontech, Mountain View, CA) was added directly to cells, at a 1:10 dilution of the remaining media volume (7.5 μL of WST-1 reagent was added per 75 μL remaining cell culture media). NHBE cells exposed to media only and 1% Triton in BEGM were included as controls. Ionic liquid controls at the highest concentrations tested were included in wells without cells to rule out ionic liquid/assay reagent interference.

Structure (SMILES) | IC50
NC(N)=O [LANL-6, urea-choline] | > 10 mM

same assay, conditions: read-out: IC50 at 24 h; WST, NHBE cells, 24 h; lower limits where solubility precluded IC50

Structure (SMILES) | IC50
NC(N)=O [LANL-6, urea-choline] | > 10 mM
O=S(=O)(NS(=O)(=O)C(F)(F)F)C(F)(F)F [LANL-12, choline-NTf2] | 1.7 mM

test system: not listed separately; assay: Calculations of molarity and ionic strength; assay type: physicochemical; conditions: neat IL, Table 5

Structure (SMILES) | ionic strength | molarity
CCCCCC(=O)[O-].CCCCCCCCCCCCCC[P+](CCCCCC)(CCCCCC)CCCCCC [LANL-20, [PC14H29(C6H13)3][hexanoate]] | 1.63 M | 1.63 M
